Earlier results as cited in patent publication US5817628A, “Dynorphin a suppression of natural killer cell activity” (The Rockefeller University, priority 1992, dated 1998).

System: NK cells
Conditions: reported by other investigators

| Compound | effect on NK activity in vitro (literature) |
| --- | --- |
| CN1CC[C@]23c4c5ccc(O)c4O[C@H]2[C@@H](O)C=C[C@H]3[C@H]1C5 [Morphine] | enhanced NK activity in one study |
| CCC(=O)C(CC(C)N(C)C)(c1ccccc1)c1ccccc1 (stereo not shown) [methadone] | observed in vitro only at methadone concentrations many orders of magnitude higher than those observed during any clinical use of methadone |
| Met-enkephalin | appears to enhance NK activity |
| β-endorphin (YGGFMTSEKSQTPLVTLFKNAIIKNAYKKGE; Beta-endorphin; UniProt P01189 237-267, looked up) [endogenous opioid] | increases NK cell activity in vitro |
